Counter-ions that a name gives are not always drawn. Like-named read-outs stand apart in the source and are kept apart here.

In assay [1] the test system is Phosphorylated Ribosomal Protein S6 (RPS6). Kind of assay: THP-1 RPS6 ELISA Assay. To be noted: THP-1 cells, read-out: PI3Kγ_THP1_RPS6_ELISA IC50. The format is cell-based, Human. The essentials:
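Serum-starved THP-1 cells were preincubated with a concentration range of compound for 2 h at 37 °C, then stimulated with 10 nM MCP-1 for 15 min. Phospho-RPS6 in lysates was quantified by ELISA at 450 nm. IC50 came from percent inhibition versus log inhibitor concentration.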
In general terms: In an ELISA, binding on a coated surface is turned into a signal by an enzyme label.

For assay [2], the target named is PI3Kγ (p110γ) Recombinant Human Protein (Homo sapiens (Human), UniProt P48736). Kind of assay: PI3K-γ Scintillation Proximity Assay. It counts as biochemical. The note with it: read-out: PI3Kγ IC50. The essentials:
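Recombinant human p110γ assayed at room temperature in 20 mM MOPS pH 6.7, 10 mM MgCl2, 5 mM DTT, 0.03% CHAPS, 2% DMSO, with 20 μM PIP2 and 2 μM ATP plus [γ-33P]ATP. Product captured on WGA SPA beads overnight and counted; IC50 fitted from % of solvent-control activity versus log inhibitor concentration.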
In general terms: In a scintillation proximity assay essentially only radioactivity close to the scintillant gives light.

Assay [3] concerns the target PI3Kδ (p110δ/p85α) Recombinant Human Protein (Homo sapiens (Human), UniProt O00329). The experiment in a line: PI3Kδ Scintillation Proximity Assay. The format is biochemical. The essentials: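 Recombinant human p110δ/p85α (3.4 nM) with 20 μM PIP2 and 2 μM ATP plus [γ-33P]ATP, in 20 mM MOPS pH 6.7, 10 mM MgCl2, 5 mM DTT, 0.03% CHAPS, 2% DMSO; 120 min at room temperature. Product captured on WGA SPA beads, scintillation counted; IC50 from percent-of-control curves.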

PI3Kγ (p110γ) Recombinant Human Protein, sequence (P48736 whole entry): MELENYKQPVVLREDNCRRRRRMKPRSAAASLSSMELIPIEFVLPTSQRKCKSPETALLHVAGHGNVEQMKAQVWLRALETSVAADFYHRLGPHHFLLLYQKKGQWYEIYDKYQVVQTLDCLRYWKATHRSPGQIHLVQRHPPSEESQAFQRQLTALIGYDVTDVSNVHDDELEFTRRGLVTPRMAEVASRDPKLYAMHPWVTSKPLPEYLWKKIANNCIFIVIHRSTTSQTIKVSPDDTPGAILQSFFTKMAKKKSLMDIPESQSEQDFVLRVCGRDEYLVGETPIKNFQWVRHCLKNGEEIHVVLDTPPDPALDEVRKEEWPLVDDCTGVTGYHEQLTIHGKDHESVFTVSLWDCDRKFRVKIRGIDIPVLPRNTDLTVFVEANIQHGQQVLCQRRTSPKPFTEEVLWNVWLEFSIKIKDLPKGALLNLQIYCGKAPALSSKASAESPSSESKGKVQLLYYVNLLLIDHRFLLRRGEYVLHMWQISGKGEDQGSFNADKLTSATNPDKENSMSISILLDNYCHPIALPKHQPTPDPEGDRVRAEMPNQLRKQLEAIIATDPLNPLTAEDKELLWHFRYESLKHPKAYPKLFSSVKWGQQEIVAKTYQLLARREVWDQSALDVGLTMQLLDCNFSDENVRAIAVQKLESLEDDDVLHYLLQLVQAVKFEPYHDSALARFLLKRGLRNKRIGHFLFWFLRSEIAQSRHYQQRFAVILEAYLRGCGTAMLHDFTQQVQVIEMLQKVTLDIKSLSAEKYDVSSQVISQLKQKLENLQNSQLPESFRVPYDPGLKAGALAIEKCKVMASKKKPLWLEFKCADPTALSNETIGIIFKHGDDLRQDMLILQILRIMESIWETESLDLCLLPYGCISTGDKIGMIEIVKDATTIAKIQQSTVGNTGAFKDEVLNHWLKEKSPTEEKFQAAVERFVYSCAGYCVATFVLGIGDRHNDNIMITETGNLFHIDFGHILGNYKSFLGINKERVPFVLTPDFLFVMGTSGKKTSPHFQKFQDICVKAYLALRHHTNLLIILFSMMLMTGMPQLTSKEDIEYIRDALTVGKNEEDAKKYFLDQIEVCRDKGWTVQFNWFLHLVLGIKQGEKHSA
PI3Kδ (p110δ/p85α) Recombinant Human Protein, sequence (O00329 whole entry): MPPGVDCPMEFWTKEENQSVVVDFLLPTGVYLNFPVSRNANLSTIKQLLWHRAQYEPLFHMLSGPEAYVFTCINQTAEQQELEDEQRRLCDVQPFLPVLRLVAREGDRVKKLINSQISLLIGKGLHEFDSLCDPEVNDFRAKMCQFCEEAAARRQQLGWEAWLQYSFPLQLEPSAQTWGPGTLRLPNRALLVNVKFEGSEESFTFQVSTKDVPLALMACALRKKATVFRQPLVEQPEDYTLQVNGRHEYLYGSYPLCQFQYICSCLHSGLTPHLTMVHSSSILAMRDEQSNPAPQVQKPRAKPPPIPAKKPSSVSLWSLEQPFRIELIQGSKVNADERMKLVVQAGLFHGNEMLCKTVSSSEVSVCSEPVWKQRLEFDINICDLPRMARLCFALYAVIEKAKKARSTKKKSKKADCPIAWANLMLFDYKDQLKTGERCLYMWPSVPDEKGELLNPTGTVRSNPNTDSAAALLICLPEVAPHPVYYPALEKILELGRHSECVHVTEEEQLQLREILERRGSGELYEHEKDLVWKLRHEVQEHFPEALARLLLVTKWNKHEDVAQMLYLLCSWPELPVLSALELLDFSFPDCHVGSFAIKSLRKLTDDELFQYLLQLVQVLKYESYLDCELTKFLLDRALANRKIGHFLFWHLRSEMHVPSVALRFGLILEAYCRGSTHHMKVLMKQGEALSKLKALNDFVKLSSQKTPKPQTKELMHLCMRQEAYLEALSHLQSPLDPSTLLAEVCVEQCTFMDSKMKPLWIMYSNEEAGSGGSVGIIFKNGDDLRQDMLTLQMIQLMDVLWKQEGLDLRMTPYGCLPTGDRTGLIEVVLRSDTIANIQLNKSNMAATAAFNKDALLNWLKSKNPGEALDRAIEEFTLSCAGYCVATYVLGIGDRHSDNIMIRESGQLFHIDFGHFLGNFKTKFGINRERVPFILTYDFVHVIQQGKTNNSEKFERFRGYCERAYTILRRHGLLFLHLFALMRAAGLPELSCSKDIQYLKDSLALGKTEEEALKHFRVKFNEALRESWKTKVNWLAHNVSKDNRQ
PI3Kδ (p110δ/p85α) Recombinant Human Protein, sequence (P27986 whole entry partner): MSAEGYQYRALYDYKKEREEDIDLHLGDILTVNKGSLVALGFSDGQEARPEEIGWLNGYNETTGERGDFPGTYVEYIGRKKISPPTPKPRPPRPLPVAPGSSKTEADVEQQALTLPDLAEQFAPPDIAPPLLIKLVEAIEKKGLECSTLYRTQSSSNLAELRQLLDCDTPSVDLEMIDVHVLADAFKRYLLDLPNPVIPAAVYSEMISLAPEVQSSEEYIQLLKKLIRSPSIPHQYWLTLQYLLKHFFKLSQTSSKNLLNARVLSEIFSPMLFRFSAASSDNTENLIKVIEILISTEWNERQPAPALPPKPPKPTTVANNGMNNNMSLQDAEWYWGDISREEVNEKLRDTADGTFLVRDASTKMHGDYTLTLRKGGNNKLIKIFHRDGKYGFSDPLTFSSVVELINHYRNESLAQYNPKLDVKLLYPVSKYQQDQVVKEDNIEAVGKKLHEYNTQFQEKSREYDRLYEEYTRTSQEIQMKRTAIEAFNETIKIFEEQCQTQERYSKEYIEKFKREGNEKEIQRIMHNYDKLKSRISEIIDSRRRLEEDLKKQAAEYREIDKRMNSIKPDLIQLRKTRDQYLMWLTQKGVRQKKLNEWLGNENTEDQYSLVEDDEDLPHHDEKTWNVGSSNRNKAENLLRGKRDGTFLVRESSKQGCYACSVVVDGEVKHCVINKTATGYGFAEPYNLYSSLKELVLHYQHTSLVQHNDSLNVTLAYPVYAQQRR

What is called IC50 is the point on the concentration scale where inhibition reaches its midpoint. Take `Cc1ccc(S(=O)(=O)N[C@H]2CC[C@](C)(O)CC2)cc1-c1cnc2c(N)ncnn12` [Example 463, 3-(4-Aminoimidazo[2,1-f][1,2,4]triazin-7-yl)-N-((1r,4r)-4-hydroxy-4-methylcyclohexyl)-4-methylbenzenesulfonamide]: the IC50 is 100 to 500 nM in assay [1] (Homo sapiens), less than 100 nM in assay [2] and 100 to 500 nM in assay [3].

On to `Cc1ccc(S(=O)(=O)NC23CC(C(F)(F)F)(C2)C3)cc1-c1cnc2c(N)ncnn12` [Example 97, 3-(4-Aminoimidazo[1,2-f][1,2,4]triazin-7-yl)-4-methyl-N-(3-(trifluoromethyl)bicyclo[1.1.1]pentan-1-yl)benzenesulfonamide trifluoroacetate salt], for which the figures for the IC50 in assay [1], in assay [2] and in assay [3] were 100 to 500 nM, less than 100 nM and 100 to 500 nM, respectively.

Turning to `Cc1ccc(S(=O)(=O)NC2CC2)cc1-c1cnc2c(N)nccn12` [Example 47, 3-(8-Aminoimidazo[1,2-a]pyrazin-3-yl)-N-cyclopropyl-4-methylbenzenesulfoanmide], the IC50 is greater than 1000 nM in assay [1], less than 100 nM in assay [2] and 500 to 2000 nM in assay [3].

Consider `C[C@]1(O)CC[C@H](NS(=O)(=O)c2cc(-c3cnc4c(N)nc(-c5ccc(CO)cc5F)cn34)ccc2F)CC1` [Example 423, 5-(8-amino-6-(2-fluoro-4-(hydroxymethyl)phenyl)imidazo[1,2-a]pyrazin-3-yl)-2-fluoro-N-((1r,4r)-4-hydroxy-4-methylcyclohexyl)benzenesulfonamide], for which the IC50 in assay [1], in assay [2] and in assay [3] was less than 100 nM in each case.

On to `Cc1ccc(S(=O)(=O)N(CCC#N)C2CC2)cc1-c1cnc2c(N)nc(C(F)(F)F)nn12` [Example 345, 3-(4-amino-2-(trifluoromethyl)imidazo[2,1-f][1,2,4]triazin-7-yl)-N-(2-cyanoethyl)-N-cyclopropyl-4-methylbenzenesulfonamide], for which the IC50 in assay [1] (Homo sapiens) was greater than 1000 nM; in assay [2], less than 100 nM; in assay [3], 100 to 500 nM.

For `Cc1ccc(S(=O)(=O)N2CC[C@H](O)C2)cc1-c1cnc2c(N)nc(-c3ccc(CO)cc3F)cn12` [Example 506, (S)-1-((3-(8-Amino-6-(2-fluoro-4-(hydroxymethyl)phenyl)imidazo[1,2-a]pyrazin-3-yl)-4-methylphenyl)sulfonyl)pyrrolidin-3-ol], the IC50 in assay [1] (Homo sapiens), in assay [2] and in assay [3] was less than 100 nM in each case.

With `Cc1ccc(S(=O)(=O)NC2CC(CO)(CO)C2)cc1-c1cnc2c(N)ncnn12` [Example 126, 3-(4-aminoimidazo[2,1-f][1,2,4]triazin-7-yl)-N-[3,3-bis(hydroxymethyl)cyclobutyl]-4-methylbenzenesulfonamide], the values for the IC50 in assay [1] (Homo sapiens), in assay [2] and in assay [3] were 100 to 500 nM, less than 100 nM and 500 to 2000 nM, respectively.

Turning to `Nc1nc(C(F)(F)F)cn2c(-c3ccc(F)c(S(=O)(=O)NC45CCC(CO)(C4)C5)c3)cnc12` [Example 398, 5-(8-Amino-6-(trifluoromethyl)imidazo[1,2-a]pyrazin-3-yl)-2-fluoro-N-(4-(hydroxymethyl)bicyclo[2.1.1]hexan-1-yl)benzenesulfonamide trifluoroacetate salt], the results for the IC50 in assay [1] (Homo sapiens), in assay [2] and in assay [3] were 500 to 1000 nM, less than 100 nM and 100 to 500 nM, respectively.

Consider `Cc1ccc(S(=O)(=O)NC23CCC(O)(CC2)CC3)cc1-c1cnc2c(N)ncnn12` [Example 185, 3-(4-aminoimidazo[2,1-f][1,2,4]triazin-7-yl)-N-(4-hydroxybicyclo[2.2.2]octan-1-yl)-4-methylbenzenesulfonamide], for which the IC50 was 100 to 500 nM in assay [1] (Homo sapiens), less than 100 nM in assay [2] and 100 to 500 nM in assay [3].

In the case of `Cc1ccc(S(=O)(=O)N2CC3CCOCC3C2)cc1-c1cnc2c(N)ncnn12` (stereo not drawn) [Example 210, 7-(5-((Hexahydropyrano[3,4-c]pyrrol-2(3H)-yl)sulfonyl)-2-methylphenyl)imidazo[2,1-f][1,2,4]triazin-4-amine], the IC50 in assay [1] (Homo sapiens) was 100 to 500 nM; in assay [2], less than 100 nM; in assay [3] it was 100 to 500 nM.

Take `Cc1ccc(S(=O)(=O)NC23CCC(F)(CC2)CC3)cc1-c1cnc2c(N)ncnn12` [Example 188, 3-(4-aminoimidazo[2,1-f][1,2,4]triazin-7-yl)-N-(4-fluorobicyclo[2.2.2]octan-1-yl)-4-methylbenzenesulfonamide]: the IC50 in assay [1] (Homo sapiens) was 100 to 500 nM; in assay [2] it was less than 100 nM; in assay [3], less than 100 nM.

Consider `Cc1ccc(S(=O)(=O)NC23CCC(CO)(C2)C3)cc1-c1cnc2c(N)ncnn12` [Example 107, 3-(4-Aminoimidazo[1,2-f][1,2,4]triazin-7-yl)-N-(4-(hydroxymethyl)bicyclo[2.1.1]hexan-1-yl)-4-methylbenzenesulfonamide trifluoroacetate salt], for which the IC50 in assay [1] was 500 to 1000 nM; in assay [2] it was less than 100 nM; in assay [3] it was 100 to 500 nM.

As for `Cc1ccc(S(C)(=O)=O)cc1-c1cnc2c(N)nc(-c3cccc(OCC#N)c3)cn12` [Example 486, 2-(3-(8-Amino-3-(2-methyl-5-(methylsulfonyl)phenyl)imidazo[1,2-a]pyrazin-6-yl)phenoxy)acetonitrile trifluoroacetate], the IC50 was 100 to 500 nM in assay [1] (Homo sapiens), less than 100 nM in assay [2] and 100 to 500 nM in assay [3].

For `Cc1nc(N)c2ncc(-c3cc(S(=O)(=O)NC45CCC(CO)(C4)C5)ccc3C)n2n1` [Example 268, 3-(4-Amino-2-methylimidazo[1,2-f][1,2,4]triazin-7-yl)-N-(4-(hydroxymethyl)bicyclo[2.1.1]hexan-1-yl)-4-methylbenzenesulfonamide trifluoroacetate salt], the IC50 was 100 to 500 nM in assay [1], less than 100 nM in assay [2] and 100 to 500 nM in assay [3].

In the case of `Cc1ccc(S(=O)(=O)N[C@H]2CC[C@H](O)CC2)cc1-c1cn2cc(-c3ccccc3F)nc(N)c2n1` [Example 22, 3-[8-Amino-6-(2-fluorophenyl)imidazo[1,2-a]pyrazin-2-yl]-N-(trans-4-hydroxycyclohexyl)-4-methylbenzenesulfonamide], the IC50 in assay [1], in assay [2] and in assay [3] was less than 100 nM each time.

Regarding `Cc1ccc(S(=O)(=O)N[C@H]2C[C@H](O)C2)cc1-c1cnc2c(N)nccn12` [Example 54, 3-(8-Aminoimidazo[1,2-a]pyrazin-3-yl)-N-(trans-3-hydroxycyclobutyl)-4-methylbenzenesulfonamide], the values for the IC50 in assay [1] (Homo sapiens), in assay [2] and in assay [3] were greater than 1000 nM, less than 100 nM and 100 to 500 nM, respectively.

As for `Cc1ccc(S(=O)(=O)NC2COC2)cc1-c1cnc2c(N)ncnn12` [Example 104, 3-(4-Aminoimidazo[1,2-f][1,2,4]triazin-7-yl)-4-methyl-N-(oxetan-3-yl)benzenesulfonamide], the IC50 in assay [1] is 500 to 1000 nM; in assay [2], less than 100 nM; in assay [3], 500 to 2000 nM.

Consider `Cc1ccc(S(=O)(=O)NC23COC(CO)(C2)C3)cc1-c1cnc2c(N)nc(C(F)(F)F)cn12` [Example 428, 3-(8-amino-6-(trifluoromethyl)imidazo[1,2-a]pyrazin-3-yl)-N-(1-(hydroxymethyl)-2-oxabicyclo[2.1.1]hexan-4-yl)-4-methylbenzenesulfonamide trifluoroacetate salt], for which the IC50 in assay [1] (Homo sapiens) is 100 to 500 nM; in assay [2], less than 100 nM; in assay [3] it was 100 to 500 nM.

Take `CC(=O)NC1CCN(S(=O)(=O)c2ccc(C)c(-c3cnc4c(N)ncnn34)c2)C1` (stereo not drawn) [Example 199, N-(1-((3-(4-Aminoimidazo[2,1-f][1,2,4]triazin-7-yl)-4-methylphenyl)sulfonyl)pyrrolidin-3-yl)acetamide]: the IC50 in assay [1] (Homo sapiens) was 500 to 1000 nM; in assay [2], less than 100 nM; in assay [3] it was 500 to 2000 nM.

`Cc1ccc(S(=O)(=O)NC23CCC(CO)(CC2)OC3)cc1-c1cnc2c(N)ncnn12` [Example 433, 3-(4-Aminoimidazo[1,2-f][1,2,4]triazin-7-yl)-N-(1-(hydroxymethyl)-2-oxabicyclo[2.2.2]octan-4-yl)-4-methylbenzenesulfonamide trifluoroacetate salt]: the results for the IC50 in assay [1] (Homo sapiens), in assay [2] and in assay [3] were 100 to 500 nM, less than 100 nM and 100 to 500 nM, respectively.

On to `Cc1cc(C)c(S(=O)(=O)N[C@H]2CC[C@](C)(O)CC2)cc1-c1cnc2c(N)nc(C(F)(F)F)nn12` [Example 413, 5-(4-Amino-2-(trifluoromethyl)imidazo[1,2-f][1,2,4]triazin-7-yl)-N-((1r,4r)-4-hydroxy-4-methylcyclohexyl)-2,4-dimethylbenzenesulfonamide trifluoroacetate salt], for which the results for the IC50 in assay [1], in assay [2] and in assay [3] were less than 100 nM, less than 100 nM and 100 to 500 nM, respectively.

As for `CCS(=O)(=O)Nc1cc(-c2cnc3c(N)nccn23)cnc1F` [Example 14, N-[5-(8-Aminoimidazo[1,2-a]pyrazin-3-yl)-2-fluoropyridin-3-yl]ethanesulfonamide bis(trifluoroacetate)], the IC50 is greater than 1000 nM in assay [1] (Homo sapiens), less than 100 nM in assay [2] and less than 100 nM in assay [3].

(Values after patent publication US10479795B2 (Incyte Corporation, priority 2016, dated 2019).)
